Assay results as given in patent publication US20160081912A1, “COMPOSITIONS FOR IMPROVING THE HAIR, SKIN, AND NAILS” (FYBRANDS CORP., priority 2013, published 2016).

Test: Solubility of cycloastragalus in water, acetone and oil carriers
Assay type: physicochemical
Description: In certain embodiments, the disclosure provides compositions to deliver the active ingredient to the root bulb of the hair follicle. Cycloastragalus is not soluble in water. Creating a cream formulation could possibly lead to clogging of pores at the site of the hair follicle, which could negatively affect restoration of the follicle. In certain aspects, the present disclosure relates to delivery of cycloastragalus using oil-based formulations. Oil is absorbed into the stratum corneum and deeper layers of the skin where the root bulb cells are located.
Initial attempts at determining an appropriate oil carrier were done using either or in combination together C10-30 Cholesterol and Lanosterol esters.
Further attempts were then made in to dissolve the cycloastragalus in oil carrier.
Cycloastragalus is soluble in acetone. We evaluated the possibility that cycloastragalus could be first dissolved in acetone and then put into solution with an oil carrier. Since acetone evaporates to completion out of any open system, it could be removed leaving the cycloastragalus in solution. One should keep in mind that acetone is incredibly flammable, and methods for removing acetone should be chosen carefully.

CC(C)(O)[C@@H]1CC[C@](C)([C@H]2[C@@H](O)C[C@@]3(C)[C@@H]4C[C@H](O)[C@H]5C(C)(C)[C@@H](O)CC[C@@]56C[C@@]46CC[C@]23C)O1 [Cycloastragalus, cycloastragenol]
solubility in acetone (acetone): soluble | dissolving in oil carrier (oil carrier, direct dissolution without acetone): limited success | solubility in water: not soluble | solubility in water (listed as cycloastragalus): very limited results
